Paper PMC8296985, “A Covalent Calmodulin Inhibitor as a Tool to Study Cellular Mechanisms of K-Ras-Driven Stemness” (Frontiers in Cell and Developmental Biology, 2021)
Read-outs that look alike come from different tables or passages of the source.

Legend:
[1] = tested on: K-RasG12V; assay: K-RasG12V nanoclustering-BRET assay in HEK293-EBNA cells; assay type: cell-based
Protocol: BRET assays were essentially performed as described by others ([Lavoie et al., 2013]; [Bery et al., 2018]). About 100,00–150,000 HEK293-EBNA ([Meissner et al., 2001]) cells were seeded per well of a 12-well plate in 1 ml of DMEM containing 10% FBS and 2 mM L-glutamine and were grown for 24 h. Next day, Rluc8-tagged donor and GFP2-tagged acceptor constructs were transfected into cells using a jetPRIME transfection reagent (cat. no. 114-75, Polyplus). Each well was transfected with about 1 μg of plasmid DNA using 3 μl of the jetPRIME reagent. For BRET donor saturation titration experiments, the concentration of donor plasmid (25 ng) was kept constant, and the concentration of acceptor plasmid was increased from 0 to 500 ng for RasG12V BRET pairs and 0–1,000 ng for K-Ras/CaM BRET pairs. The empty pcDNA3.1(-) plasmid was used to top-up the total DNA load per transfection. After 24 h of transfection, cells were treated with compounds or vehicle control (DMSO 0.2% v/v in a growth medium) at the specified concentration for 24 h or the stipulated time period in case of the time-course experiments. The cells from one well of a 12-well plate were collected, washed, and re-plated in PBS (cat. no. 14190-094, Gibco, Thermo Fisher Scientific) on flat bottom, white 96-well plates (cat. no. 236108, Nunc, Thermo Fisher Scientific) as four technical replicates containing 90 μl of cell suspension per well. Then fluorescence intensity followed by BRET readings were carried out on a Clariostar (BMG Labtech) plate reader at 25°C. The fluorescence intensity (RFU) of GFP2 was measured with excitation at 405 ± 10 nm and emission 515 ± 10 nm; it is proportional to the acceptor concentration [acceptor]. BRET readings were taken well by well by adding 10 μl of 100 μM coelenterazine 400a (cat. no. C-320, GoldBio), the Rluc8 substrate to each well (final concentration of 10 μM) using the injector present in the plate reader. Luminescence emission intensities were simultaneously recorded at 410 ± 40 nm (RLU, proportional to [donor]) and 515 ± 15 nm (BRET signal).
The raw BRET ratio was calculated as the BRET signal measured at 515 nm divided by the emission signal measured at 410 nm (RLU). The BRET ratio was obtained by subtracting the raw BRET ratio by a background BRET signal measured for cells expressing only the donor ([Bacart et al., 2008]) as indicated in the formula below:
For BRET donor saturation titration experiments, the BRET ratio was plotted against the [acceptor]/[donor] ratio. Technical repeat data points were averaged, and data points from all biological repeats were collected into one graph for subsequent fitting. The BRET ratio vs. relative expression data were fitted using a binding saturation equation in the Prism (GraphPad) software to obtain BRETmax and BRET50 using the equation y=BRETmax×x/BRET50+x , where x is the relative expression and y is the BRET ratio. BRETmax represents the maximum saturation BRET signal and depends on the structural parameters (distance, orientation) of the BRET complex. BRET50 corresponds to the ratio of the acceptor construct over the donor construct required to attain 50% of the maximum BRET signal and is a measure of the effective relative affinity between the interacting BRET pair ([Marullo and Bouvier, 2007]).
When applying the DSS analysis to nanoclustering-BRET data, we used mevastatin (10 μM) to obtain the asymptote parameter (a) for the maximal inhibition effect, as it prevents the prenylation of Ras proteins, their plasma membrane trafficking, and therefore nanoclustering. Otherwise, normalized BRET ratio data were converted to % inhibition and then subsequently uploaded onto the Breeze site (see text footnote 1).

[2] = tested on: Hs 578T; assay: 3D spheroid (tumorosphere) formation assay, low attachment, serum-free, alamarBlue; assay type: cell-based; details: Homo sapiens
Method in brief: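 Cells seeded in low-attachment wells, serum-free medium with 0.5% MethoCult, B27, 25 ng/ml EGF and FGF (1,000 cells/well; 2,500 for Hs 578T); grown 3 days, then compound for 3 days (DMSO 0.1% vehicle). alamarBlue 4 h at 37°C, Ex 560/Em 590 nm. DSS3: normalized AUC from logistic fits, 10% minimal activity threshold.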

[3] = 72 h, Hs 578T (H-RasG12D) 3D tumorosphere, 3 days treatment, read-out: IC50
[4] = Hs 578T 3D tumorosphere, log scale, read-out: logIC50 ± SD (converted)

Structure (SMILES) | time-dependent change of K-RasG12V nanoclustering-BRET signal ([1]; 2-h treatment timeframe, OphA 10 μM, mevastatin 10 μM) | K-Ras selective reduction of nanoclustering-BRET (K-Ras vs H-Ras) ([1]; 24 h, calmidazolium 20 μM, OphA 2.5 μM, prostratin 10 μM, mevastatin 10 μM, benzazulenones 20 μM) | IC50 [2, 3] | IC50 [2, 4] | reduction in the K-RasG12V BRET signal ([1]; 1 at 50 μM, within 10 min of treatment) | higher effectivity than calmidazolium in cell biological experiments ([1]; Calmirasone1 used at 2.5-fold higher concentration, Figures 3F, 7B)
CC(C)=C[C@H]1C[C@H](C)[C@]2(CC[C@]3(C)C[C@H]4[C@H](C(=O)C[C@@]4(C)O)/C(C=O)=C\C[C@H]32)O1 [OphA, Ophiobolin A, reference compound] | no significant BRET change | 1.2 fold | 1.8 µM | 1.78 µM |  | 
CC(C)c1ccc2cc(C(F)(F)F)c(=O)c3c(N4CCCCC4)c(C=O)c(c1)c23 [Compound 1] |  |  | 22.5 µM | 22.4 µM | 38% | > 25 fold
